Experimental data reported in patent US20130274196A1, “METHOD FOR TREATMENT OF INFLAMMATORY DISEASE AND DISORDER” (HEALOR LTD., priority 2010, published 2013).
“Also recorded” adds a separate entry of the source. The star is where a group is joined. Myristoyl = CCCCCCCCCCCCCC(=O)*

Key:
C57BL mice = assay: Incision wounds treated 7 days, severe inflammation incidence (Example 10); format: in vivo; conditions: 1 μM daily for 7 days
Description: Wounds were performed on the back of C57BL mice by incision and were treated daily for 7 days with: (i) PBS, control; (ii) 1 μM of the PKCα inhibitor of SEQ ID NO: 6; (iii) 1 μM insulin (Humulin, Eli Lilly, USA); or (iv) a mixture of 1 μM PKCα inhibitor and 1 μM insulin.

[1] = test system: STZ-induced diabetic C57BL/6J mice; assay: Wound healing in STZ-induced diabetic mice; format: in vivo
Description: Full thickness skin incisions (20 mm) were performed on the upper back of anesthetized streptozocin (STZ)-injected (175 mg/kg body weight) diabetic, citrate buffer injected (6 mice/group) non-diabetic, and non-injected (6 mice/group), C57BL/6J mice. Periodical blood glucose monitoring was performed by measuring glucose levels from tail vein after STZ injection. […] Following incision, STZ-induced diabetic wounds were treated daily by application of PBS (7/6 mice/group), insulin (0.1 units/ml) (6 mice/group), the PKCa inhibitor of SEQ ID NO:6 (1 μg/ml) (7/5 mice/group) or a formulation (herein designated HO/03/03) containing insulin and the N-myristoylated PKCα inhibitor of SEQ ID NO: 6 (7/6 mice/group) directly to the surgical dressing. Biopsies were collected 9 days post-wounding. Wounds were excised from euthanized animals for evaluation of wound-healing parameters by histology and immunohistochemistry.
Wounds were assessed for epidermal closure by Keratin 14 staining. Wounds were considered closed when complete epidermal staining was observed across the wound gap. Dermal contraction was considered when both dermal edges were visible in a fixed field ×100 magnification utilizing H&E staining. Epidermal differentiation was assessed by Keratin 1 staining.
The organization of hypodermis was assessed by the presence (or absence) of hypodermis at both wound edges. Granulation tissue formation was assessed by the presence of fibroblasts and collagen fibers in the wound bed. The wound was considered positive for granulation tissue formation when a continuous layer of granulation tissue was present in the wound gap. In addition, we have defined 3 specific histological parameters characterizing severe inflammation of diabetic wounds: (i) abscess formation at the wounded area, (ii) excessive leukocytosis (>100 cells in a fixed field (×200)) and (iii) high white blood cells (WBC)/red blood cells (RBC) ratio within the blood vessels shown in a fixed field (×200). When at least 2 of these parameters are present at the wound gap, the wound is considered severely inflamed.

keratinocytes [2] = assay: Cytokine secretion in LPS, TNFα or IL-17 activated keratinocytes treated with peptide PKCα inhibitors (ELISA); format: cell-based, BALB/C mice
Description: To determine their effects, keratinocytes were derived from newborn BALB/C mice skin. The cells were incubated for 5 days in 24 wells plate. Cells were then incubated with PBS −/− as control or stimulated by LPS, TNFα, or IL-17. PKCα inhibitors were added as indicated. Medium containing secreted cytokines was collected after 48 hr and analyzed using ELISA. FIG. 50 is a tabular summary of cytokine secretion.

activated macrophages = assay: Macrophage activation in skin wound (MAC-2 staining); format: in vivo, C57BL/6J mouse; conditions: daily treatment, 5 days; p(control vs 10 μg)=0.0028
Description: The effect of MPDY-1 on macrophage activation was also shown by MAC-2 staining. MAC-2 is a specific marker for activated macrophages. […] A two-cm longitudinal incision was done as described above. Animals were treated daily with DPBS^−/− (Control) or MPDY-1 in the specified concentrations (n=6). After 5 days immunohistochemical staining was performed utilizing anti-MAC-2 antibodies. Bar […]. (*p(control Vs. MPDY-1 10 μg)=0.0028).

IKK = assay: TNFα induced IKK activation in keratinocytes (phospho-IKKa/b Western blot); format: cell-based, Murine; conditions: 1 hour pretreatment, TNFα 35 ng/ml 15 minutes
Description: Murine primary keratinocytes were grown for 4 days to full confluence in Low Ca^+2 MEM. Cells were pretreated with designated concentration of MPDY-1 as described in the figure for 1 hour, prior to TNFα induction. Following MPDY-1 pretreatment, cells were incubated with TNFα 35 ng/ml for 15 minutes. Reaction was stopped by adding ice-cold dPBS−/− and keratinocytes were homogenized in RIPA buffer. Samples were subjected to SDS PAGE Western Blot analysis, utilizing phospho-IKKa/b (Ser176/180 antibody).

macrophages = assay: Macrophage infiltration in skin wound (Iba-1 staining); format: in vivo, C57BL/6J mouse; conditions: daily treatment, five days post-wounding
Description: The effect of MPDY-1 on macrophage infiltration was also shown by Iba-1 staining. Iba-1 is a general marker for macrophages. […] As above, a two-cm longitudinal incision was done on the upper back of a C57BL/6J mouse. Following wounding, a sterile pad was sutured to the mouse's skin. Animals were treated daily with MPDY-1 (n=6). Five days post-wounding, when inflammatory phase reaches its peak, the mice were sacrificed, skin tissues were embedded in paraffin and immunohistochemical staining was performed utilizing anti-Iba-1 antibodies.

[3] = test system: histamine induced pruritus; assay: Histamine prick test model of pruritus; format: in vivo, healthy volunteers; conditions: for Pruritus score: scale 0-4, individual subject
Description: Forearms of individual subjects were injected with histamine solution and placebo. The formulation of Example 4 was topically applied with MPDY-1 at various concentrations and pruritus was assessed over a time course as shown in FIGS. 39-42.
This test was performed by placing a drop of a solution containing a possible allergen on the skin, and a series of scratches or needle pricks allow the solution to enter the skin. The extract enters into the outer layer of the skin (epidermis) using a fine needle (such as a. 26G disposable needle). This testing is not painful, and generally there is no bleeding involved since the needle only scratches the surface of the skin. If the skin develops a red, raised itchy area (called a wheal), it is as a result of allergic reaction to that allergen. This is called a positive reaction. A drop of extract is introduced through a fine needle (such as a No. 26 disposable needle). The test causes no discomfort and minimal trauma so that controls and negative test show only the site of the prick; if anything.
26G needles were utilized to introduce histamine stock (Histatrol Positive Control Histamine, 1 mg/ml, code #HIST14999V, Trupharm). The test was conducted on healthy volunteers in a double-blind, randomized test. The formulations were applied on the forearms. Three treatment areas were chosen and marked (the surface of the forearm from the elbow to the wrist was divided transversely into proximal, middle and distal thirds); the areas were pricked prior the below treatments.
An area was treated with the active formulation in a double-blind manner, for 10 minutes—marked as A.
An area was treated with the Placebo in a double-blind manner, for 10 minutes—marked as C.
A color photograph was taken at time zero (T0), after 10, 20, 30 minutes.
Pruritus questionnaire was answered by the subjects 5 and 15 minutes after treatment.
Subjects were provided with pruritus sensation forms and asked to indicate the level of pruritus sensed from 0 (no response) to 4 (uncontrollable pruritus) at different time intervals.

EAE mice = assay: Experimental allergic encephalomyelitis (EAE), MOG35-55/CFA immunized mice; format: in vivo, C57BL/6J mice; conditions: for Score on day 18 / Score on day 29 / Score on day 37: EAE scale 0-6; for EAE score on the initial day: scale 0-6
keratinocytes [4] = assay: Cytokine secretion in stimulated keratinocytes treated with PKCδ activator (ELISA); format: cell-based, BALB/C mice; conditions: stimulated by LPS or TNFα, 48 hr
Description: (§1) PKCδ activators were also shown to have an anti-inflammatory effect on keratinocytes and splenocytes. Keratinocytes were derived from newborn BALB/C mice skin. The cells were incubated for 5 days in 24 wells plate. Cells were then incubated with PBS −/− as control or stimulated by LPS or TNFα. The PKCδ […] DAP-1 (SEQ ID NO: 34) was added. Medium containing secreted cytokines was collected after 48 hr and analyzed using ELISA. FIG. 43 is a tabular summary showing cytokine secretion in splenocytes stimulated with LPS. FIG. 44 is a tabular summary of cytokine secretion in keratinocytes stimulated by TNFα.

splenocytes = assay: Cytokine secretion in LPS stimulated splenocytes treated with PKCδ activator; format: cell-based
Description: as §1

[5] = 9-days post wounding, percent of wounds in group, insulin 0.1 units, HO/02 1 ug/ml
[6] = 9-days post wounding, percent of wounds in group, insulin 0.1 units, SEQ ID NO: 6 1 ug/ml

Myristoyl-Phe-Ala-Arg-Lys-Gly-Ala-Leu-Arg-Gln-OH (Myristoyl-FARKGALRQ-OH; SMILES CCCCCCCCCCCCCC(=O)N[C@@H](Cc1ccccc1)C(=O)N[C@@H](C)C(=O)N[C@@H](CCCNC(=N)N)C(=O)N[C@@H](CCCCN)C(=O)NCC(=O)N[C@@H](C)C(=O)N[C@@H](CC(C)C)C(=O)N[C@@H](CCCNC(=N)N)C(=O)N[C@@H](CCC(N)=O)C(=O)O) [MPDY-1]
decrease of severe wound inflammation incidence, as compared to control (C57BL mice): 33.3%
Incidence of severe inflammation in wound (%) (C57BL mice; PBS control 60): 40%
Dermal closure (H&E) [1, 5]: 17%
Epidermal closure (K14) [1, 5]: 17%
Epidermal differentiation (Kl) [1, 5]: 17%
Granulation tissue [1, 6]: 50%
Hypodermis [1, 6]: 10%
Severe inflammation [1, 6]: 30%
overall healing effect in diabetic wounds ([1]; 9 days post-wounding): only partial healing effects
cytokine secretion from IL-17A activated keratinocytes (keratinocytes [2]; IL-17A activated): decrease cytokine secretion
cytokine secretion from LPS and TNFα activated keratinocytes (keratinocytes [2]; LPS and TNFα activated): decrease cytokine secretion
cytokine secretion in keratinocytes (keratinocytes [2]; stimulated by LPS, TNFα, or IL-17, medium collected after 48 hr): effective in decreasing cytokine secretion
activation of macrophages (MAC-2 positive cells per field) (activated macrophages): significantly inhibited
TNFα induced IKK activation in keratinocytes (IKK): significantly reduced TNFα induced IKK activation
concentration exhibiting the strongest inhibition of IKK activation (lowest concentration) (IKK): 0.1 mg/mL
macrophage infiltration (Iba-1 positive cells per field) (macrophages): dose dependent effect
Pruritus score ([3]; 5 minutes after histamine, MPDY-1 1 μg/ml (A1)): 3
Pruritus score ([3]; 5 minutes after histamine, MPDY-1 10 μg/ml (A2)): 2
Pruritus score ([3]; 15 minutes after histamine, MPDY-1 1 μg/ml (A1)): 1
Pruritus score ([3]; 15 minutes after histamine, MPDY-1 10 μg/ml (A2)): 0
redness, inflammation and pruritus compared with control over the time course ([3]; topical application): significantly attenuated redness, inflammation and pruritus
The initial day (of illness signs) (EAE mice; 0.1 mg/kg): 13 days
EAE severity / score compared to control group (EAE mice; 0.1 mg/kg (0.1 μg/ml)): lower score during most of the experiment days; also recorded: reduced EAE severity
delay of development of EAE clinical conditions compared to control group (EAE mice; 0.1 mg/kg (0.1 μg/ml)): two days later than the control group; also recorded: two days delay
Score on day 18 (EAE mice; 0.1 mg/kg): 2.571
Score on day 29 (EAE mice; 0.1 mg/kg): 2.000
Score on day 37 (EAE mice; 0.1 mg/kg): 1.500
EAE score on the initial day (EAE mice; 0.1 mg/kg): 1.000
The initial day (of illness signs) (EAE mice; 1 mg/kg): 11 days
Number of dead mice during 49 days (EAE mice; 1 mg/kg i.p. three times a week, n=7): 2
Score on day 18 (EAE mice; 1 mg/kg): 3.143
Score on day 29 (EAE mice; 1 mg/kg): 3.286
Score on day 37 (EAE mice; 1 mg/kg): 3.071
EAE score on the initial day (EAE mice; 1 mg/kg): 0.214
average group score at the end of the experiment (day 42) (EAE mice; concentration of 0.1 μg/ml, control group score 2.86): 1.93

H-His-Phe-Glu-Asp-Trp-Ile-Asp-His-Phe-Glu-Asp-Trp-Ile-Asp-OH (H-HFEDWIDHFEDWID-OH) [DAP-1]
inflammatory cytokine secretion in keratinocytes (keratinocytes [4]): significantly decease inflammatory cytokine secretion
inflammatory cytokine secretion in splenocytes (splenocytes): significantly decease inflammatory cytokine secretion
